Where no end group is shown, it is not given here.

Holding throughout (format): in vivo, mouse
The test system of data set [1] is C57BL/6 mice. Nature of the data set: Chronic DSS-induced colitis, prophylactic immunization. An excerpt:
(§1) DSS-Induced Colitis and Assessment. Before inducing colitis, mice from each treatment group were divided amongst the cages to avoid any cage-related disease effects. This excluded the PBS without DSS (healthy) control mice which remained in their own cage and received normal drinking water for the duration of the experiment. Colitis was induced by administering 2% (w/v) colitis-grade dextran sodium sulfate (MP Biomedicals, 160110) in drinking water. For determination of prophylactic immunization efficacy, mice were immunized i.p. 3 times at days −35, −21 and −7 before colitis induction on Day 0. Chronic colitis was induced via DSS-containing water given for 5 days followed by 5 days of normal drinking water for 3 cycles, resulting in a 30-day model. A shorter, acute DSS-induced colitis model consisting of one cycle of colitis was achieved by giving 5 days of 2% DSS in water followed by 5 days of normal drinking water for a total of 10 days and was also examined in a preventative immunization scenario. Mice were weighed daily and evaluated for the IACUC approved humane endpoint of >30% weight loss as DSS mice regain weight quickly after DSS administration ceases. They were also monitored for occult blood with Hemoccult tape and developer (Beckman Coulter, 63202) and fecal consistency. Disease activity index (DAI) scores were a combination of weight loss (≥100%=0, 90-99%=1, 80-89%=2, […]), occult blood (no blood=0, blood=3), and fecal consistency (hard=0, soft=1, softer=2, runny=3), with a possible daily maximum score of 9. […] At the experimental endpoint, mice were euthanized, and colon lengths were measured from the base of the cecum to the rectum using digital calibrators. To determine immunization efficacy in a therapeutic colitis setting, colitis was first induced by administering one cycle of colitis achieved by 5 days of 2% DSS in water followed by 5 days of normal drinking water for a total of 10 days. Mice were monitored daily as described above until they on average regained their original body weight on day 20. At this point, i.p. immunizations were initiated and given three times over a 4-week period on days 20, 32, and 45, and colitis monitoring was reduced to twice weekly. An additional cycle of colitis was then induced on day 51 via 5 days of 2% DSS in water followed by 5 days of normal drinking water for a total of 10 days with daily monitoring. The entire therapeutic model ended on day 60, and colon lengths were measured as described above.
FITC-dextran Measurements. On the last day of the chronic and therapeutic DSS colitis models, mice were fasted overnight and then given 0.6 mg/g 3-5 KDa m.w. FITC-dextran (Sigma, FD4) in 100 μL of sterile 1×PBS via oral gavage. Serum samples were collected 3 h later at the experimental endpoint. To determine the intestinal barrier permeability, serum samples were diluted in 1×PBS and FITC fluorescence intensity was measured at an excitation of 488 nm and emission of 520 nm. Values were converted to pg/mL via a standard curve of FITC-dextran in serum.
(§2) Spleen Bacteria Measurements. At the conclusion of the DSS experiments, spleens were harvested and weighed followed by homogenization in 500 μL of 0.1% Triton X-100 in sterile 1×PBS using a Tissue Tearer handheld homogenizer (Biospec Products). 25 μL of homogenate solution was then spread on each quarter of culture plates consisting of tryptic soy broth No. 2 (Sigma, 51228) and Difco agar, granulated (BD Biosciences, 214530) in dilutions from 100 to 103. After a 48 hr incubation at 37° C., colony forming units (CFUs) were counted and converted to CFU/g of spleen tissue via the equations: […]
Colon IL-10 Quantification. At the conclusion of some DSS experiments, one half of the harvested mouse colons were flushed with PBS to remove fecal matter and flash frozen in liquid nitrogen. […]

Data set [2] deals with C57BL/6 mice. The data set can be described thus: One cycle acute DSS-induced colitis, female and male mice.
Description: as §1, §2
Colon IL-10 Quantification. At the conclusion of some DSS experiments, one half of the harvested mouse colons were flushed with PBS to remove fecal matter and flash frozen in liquid nitrogen. Later, colons were thawed on ice, weighed, and homogenized in 2 μL/mg of Tissue Extraction Reagent I (Thermo Fisher, FNN0071) with a protease inhibitor tablet (Thermo Fisher, A32955) using a Navy Bead Lysis Kit (Next Advance, NAVYE1). The amount of IL-10 in colon homogenate supernatants was then measured using an IL-10 mouse ELISA kit (Invitrogen, 88-7105-22) in accordance with the manufacturer's protocol.

In another data set the test system is B1a cells (CD19^+CD5^+). The data set can be described thus: Colon B cell populations by flow cytometry: B1a cells. The following applies: vs other DSS-administered mice. The method, then:
(§3) Determination of Colon B cell Populations. Small colon samples collected from either after immunization only or after colitis experiments were collected at experimental endpoints. Colon samples were flushed with PBS and then digested in a solution containing 200 U/mL collagenase from Clostridium histolyticum (Sigma, C5138) and 0.1 mg/mL DNase I (Sigma, 10104159001) in 1×PBS. Digestion occurred at 37° C. while shaking for a total of 30 minutes. The solutions were then filtered to isolate cells, spun down, and transferred into ice cold flow buffer (2% heat-inactivated FBS in 1×PBS). The cells were blocked with mouse BD Fc Block (Clone: 2.4G2) (BD Biosciences, 553142) for 30 min on ice and then washed in flow buffer and stained with antibodies against CD5-APC (Clone: 53-7.3) (BioLegend, 100626), CD19-APC/Cy7 (Clone: 6D5) (BioLegend, 115530), B220-PE (Clone: RA3-6B2) (BioLegend, […]), and CD138-PE/Cy7 (Clone: 281-2) (BioLegend, […]) in flow buffer for 30 min on ice. Cells were washed and DAPI was added. Flow cytometry was then conducted on a BD FACSCanto II cytometer and the results were analyzed using FlowJo software.
For orientation: In flow cytometry, cells or beads pass a laser one at a time.

In data set [3] the test system is plasma cells (B220^+CD138^+). The data set can be described thus: Colon B cell populations by flow cytometry: plasma cells. The following applies: vs disease controls. On the procedure:
as §3

[4] abbreviates: 2% DSS, 3 cycles, 30 days, vs disease controls.

Regarding “(C11H22NO6P)n-CCCCSGSG-QQKFQFQFEQQ-NH2 (CCCCSGSGQQKFQFQFEQQ-NH2; not fully specified; cysteine pairing not given here; also: phosphorylcholine groups (C11H22NO6P) n=1-4, attachment not placed) [PCM-Q11, linear multi-PC conjugate]”, in the data set on C57BL/6 mice [1] (setting [4]), the “disease activity index (DAI) scores / disease severity” value was “improved disease severity” and the weight loss result is on record as “reduced weight loss”. Also, the “serum anti-PC IgG subclass responses at week 5” value with C57BL/6 mice [1] (before DSS administration) is listed as “skewed the subclass response towards non-inflammatory IgG1 with IgG2b also present”. Besides, the “IL-10 levels in colon homogenates” value with C57BL/6 mice [1] (chronic colitis experiment 1) was “highest levels that were not significantly different from healthy controls”. In the data set with C57BL/6 mice [1] (day 30, vs disease controls), the “colon length (colon shortening)” value is on record as “diminished colon shortening”. Also, the “serum anti-PC IgM” value in the data set with C57BL/6 mice [1] (i.p. days −35, −21, −7, without CpG) is given as “did not induce anti-PC IgM within detection levels”. In the data set with C57BL/6 mice [2] (both sexes, vs CpG-immunized mice and DSS disease controls), the colon lengths result is reported as “increased colon lengths”. Further, in the data set with C57BL/6 mice [2] (female), the “serum anti-PC IgM, female mice” value is recorded as “undetectable” and the “spleen colony forming units (CFUs), female mice” value is “dramatically decreased spleen colony forming units (CFUs)”. Further, in the data set on C57BL/6 mice [2] (male), the “colon IL-10 levels, male mice” value is “not significantly reduced compared to healthy controls”; the “serum anti-PC IgM, male mice” value is reported as “significantly less anti-PC IgM than PCM-Q11/CpG”; the “spleen CFUs / bacterial spread, male mice” value is listed as “This trend was also present, though not statistically significant”. In addition, the “protective efficacy / disease metrics, female mice” value in the data set with C57BL/6 mice [2] (one cycle 2% DSS, 10 days, female) is reported as “significant protective efficacy”. Besides, the “weight loss and disease activity index scores, male mice” value in the data set with C57BL/6 mice [2] (one cycle 2% DSS, male) is “improved weight loss and disease activity index scores”. The “colonic B1a cells after chronic DSS colitis” value in the data set with B1a cells (CD19^+CD5^+) is listed as “decrease in B1a cells”. Moreover, the “colon plasma cells after chronic DSS colitis” value in data set [3] was “more plasma cells than disease controls”.

Source of the values: patent US20250281629A1, “COMPOSITIONS AND METHODS FOR ANTI-PHOSPHOCHOLINE ACTIVE IMMUNOTHERAPY” (Duke University, priority 2022, published 2025).
